In experiment [1] the test system is P-glycoprotein. As to the kind of experiment: P-glycoprotein expression level by western blotting after drug addition. It is filed as cell-based, human. The procedure:
In […] HCT-15 cells (obtained from Developmental Therapeutics Program, National Cancer Institute, National Institutes of Health, Bethesda, Md., USA) and […] SW620 cells (obtained from Developmental Therapeutics Program, National Cancer Institute, National Institutes of Health, Bethesda, Md., USA), which expressed P-glycoprotein at a high level, screening of drugs that reduced the expression level of P-glycoprotein was performed by western blotting. […]
Inhibitory effects of MEK inhibitor U0126 on the expression level of P-glycoprotein in HCT-15 and SW620 cells prepared by the same procedure as described in PREPARATION EXAMPLE 1 in which endogenous P-glycoprotein was expressed and in the MCF-7/MDR and MDA-MB-231/MDR cells in which exogenous P-glycoprotein was expressed were monitored with passage of time in a manner similar to EXAMPLE 1. […]
Using MEK inhibitor PD098059 (purchased from Cell Signaling Technology; see English, J. et al. (1999) Exp. Cell Res. 253, 255), which has an action mechanism different from U0126, inhibitory effects of MEK inhibitor PD098059 on the expression level of P-glycoprotein in the HCT-15 and SW620 cells in which endogenous P-glycoprotein was expressed and in the MCF-7/MDR and MDA-MB-231/MDR cells in which exogenous P-glycoprotein was expressed were monitored with passage of time in a manner similar to EXAMPLE 1. […]
On the technique in general: A western blot detects proteins with antibodies after separation by electrophoresis.

In experiment [2] the test system is MDR1 mRNA. As to conditions: U0126 10 μM.
The test system of experiment [3] is BCRP. Particulars: U0126 10 μM; human colon cancer (HT-29, KM12), non-small-cell lung cancer (NCI-H460, A549) and ovarian cancer (OVACAR-5) cells; in 12 hours later (FIG. 5).
Experimental: After incubation for 8 hours or 12 hours, each drug was added to the cells followed by further incubation. Thereafter, the BCRP expression level was assessed by western blotting using an anti-BCRP antibody (manufactured by Chemicon International Inc., trade name: BXP-21). The protein of 10 μg each was electrophoresed in each lane. The protein was quantified by Bradford assay (Bio-Rad protein assay dye reagent). More specifically, the incubated cells were recovered with a cell scraper and centrifuged (5,000 rpm×3 mins.) to pellet down. […] While vortexing every 5 minutes, the cell membrane and cytoplasmic fractions were solubilized on ice for 30 minutes in total. Using the supernatant after centrifugation (15,000 rpm×15 mins.) as a sample, the protein was quantified.
The test system of experiment [4] is HCT-15 cells. As to the kind of experiment: cell growth inhibition test, HCT-15. As to conditions: Homo sapiens, 120 h, read-out: IC50 concentration (50% growth inhibitory concentration), 5 days. It is filed as cell-based.
Experimental: (§1) The cells were plated in 12-well plates (manufactured by IWAKI GLASS Co. […] Subsequently, the drug diluted in the medium to different concentrations was added in a volume of 1 ml per well. The plates were placed in a 5% carbon dioxide gas incubator and incubation was performed at 37° C. for 5 days. Five days after, the cells were rinsed with phosphate buffer and detached with 0.5 ml of trypsin-EDTA. The cells were then suspended in 1 ml of the medium. The cell suspension in each well was added into a beaker containing 9 ml of […] diluent (TOA Medical Electronics Co., Ltd.), and the number of cells was counted with a Sysmex CDA-500 automated cell counter (TOA Medical Electronics Co., Ltd.).
For experiment [5], the system named is SW620-14 cells. As to the kind of experiment: cell growth inhibition test, SW620-14. It is filed as cell-based. Particulars: Homo sapiens, 120 h, read-out: IC50 concentration (50% growth inhibitory concentration), 5 days.
Experimental: as §1
The subject of experiment [6] is MDA-MB-231/MDR cells. As to the kind of experiment: cell growth inhibition test, MDA-MB-231/MDR. It is filed as cell-based. As to conditions: Homo sapiens, 120 h, read-out: IC50 concentration (50% growth inhibitory concentration), 5 days.
Experimental: as §1
The test system of experiment [7] is MCF-7/MDR cells. The experiment is described as follows: cell growth inhibition test, MCF-7/MDR. It is filed as cell-based. As to conditions: Homo sapiens, MCF7, 120 h, read-out: IC50 concentration (50% growth inhibitory concentration), 5 days.
Experimental: as §1

A value given as a limit tells only on which side of the number the result lay.

For `O=c1cc(N2CCOCC2)oc2c(-c3ccccc3)cccc12` [LY294002, 2-(4-morpholinyl)-8-phenyl-1(4H)-benzopyran-4-one], in experiment [1] (HCT-15 cells and SW620 cells, endogenous P-glycoprotein, western blotting (FIG. 1)), the P-glycoprotein expression level entry is “not down-regulated”.

Turning to `N#CC(=C(N)Sc1ccccc1N)C(C#N)=C(N)Sc1ccccc1N` [U0126, 1,4-diamino-2,3-dicyano-1,4-bis[2-aminophenylthio]butadiene], the “expression level of MDR1 mRNA” value in experiment [2] is given as “Any change was not observed”. Further, the “expression level of P-glycoprotein” value in experiment [1] (U0126 10 μM, MCF-7/MDR and MDA-MB-231/MDR cells (exogenous P-glycoprotein), in 8 to 12 hours (FIG. 2)) is recorded as ≤ 10 % of control. For the same molecule, the “expression level of BCRP” value in experiment [3] is “reduced”.

Turning to `CC(=O)O[C@H]1C(=O)[C@@]2(C)[C@H]([C@H](OC(=O)c3ccccc3)[C@]3(O)C[C@H](OC(=O)[C@H](O)[C@@H](NC(=O)c4ccccc4)c4ccccc4)C(C)=C1C3(C)C)[C@]1(OC(C)=O)CO[C@@H]1C[C@@H]2O` [paclitaxel], the IC50 in experiment [4] came out at 100 nM; in experiment [5], 5 nM; in experiment [6] it was 800 nM; in experiment [7] it was 4 nM.

These data come from patent US20090239936A1, “Prophylactic and Therapeutic Agent for Cancer” (priority 2006, published 2009).
